Reference: patent EP4635945A1, “CRYSTAL FORM OF PROXIMOD, PREPARATION METHOD THEREFOR, AND USE THEREOF” (Jiankuan (Suzhou) Biotechnology Co., Ltd, priority 2022, dated 2024)

How the values were obtained:
Assay type in all cases: physicochemical
[1] = Solid-state stability of crystal forms on storage (XRPD, purity); settings: for Maximum single impurity after storage / Crystal form after storage / Main purity after storage: 30 days, exposed; for Time the crystal form remains stable: at 60 °C, 92.5% RH, and 45 °C/75% RH
Protocol: The crystal forms of the samples before and after storage were tested by XRPD.

[2] = Mechanical stability: grinding in agate mortar, XRPD; settings: 50 mg ground with an agate mortar for 5 minutes; hydrochloride
Description: The samples before and after ground were detected by XRPD.

[3] = Microscopic morphology and particle size; settings: microscopy; for Length/short diameter ratio / Microscopic morphology: hydrochloride
Description: In the examples of the present application, the instrument used for the X-ray powder diffraction test is the D2 Phaser produced by Bruker. The instrument used for the differential scanning calorimetry test is the differential scanning calorimeter DSC 250 produced by TA Instruments. The instrument used for the thermogravimetric analysis is the thermogravimetric analyzer TGA 55 produced by TA Instruments. The instrument used for the FT-IR test is the Fourier infrared spectrometer ID1-summit produced by Thermo. The instrument used for the dynamic vapor sorption test is the DVS Intrinsic produced by Surface Measurement Systems (SMS). The instrument used for the microscopy is the microscope NJF-120A produced by Suzhou Nanguang Electronic Technology Co., Ltd.

SMILES	Maximum single impurity after storage ([1]; At 40 °C/75% RH)	Crystal form after storage ([1]; At 40 °C/75% RH, hydrochloride)	Main purity after storage ([1]; At 40 °C/75% RH, hydrochloride)	Maximum single impurity after storage ([1]; At 60 °C)	Crystal form after storage ([1]; At 60 °C, hydrochloride)	Main purity after storage ([1]; At 60 °C, hydrochloride)	Maximum single impurity after storage ([1]; At 92.5%RH)	Crystal form after storage ([1]; At 92.5%RH, hydrochloride)	Main purity after storage ([1]; At 92.5%RH, hydrochloride)	Maximum single impurity before storage [1]	Main purity before storage ([1]; hydrochloride)	Crystal form after storage ([1]; In light, hydrochloride)	Main purity after storage ([1]; In light, hydrochloride)	Maximum single impurity after storage ([1]; In light, hydrochloride)	Time the crystal form remains stable [1]	Crystal form after ground (XRPD) [2]	Length/short diameter ratio [3]	Microscopic morphology [3]	Maximum particle size [3]
CCCc1nc(-c2ccc(-c3ccc(CCC(N)(CO)CO)cc3)cc2)co1.Cl [Crystal form A, 2-amino-2-{2-(4'-(2-propyloxazol-4-yl)-[1,1'-biphenyl]-4-yl)ethyl}-1,3-propanediol hydrochloride]	Maximum single impurity: 0.04 A%	Crystal form A	Main purity: 99.82 A%	Maximum single impurity: 0.04 A%	Crystal form A	Main purity: 99.80 A%	Maximum single impurity: 0.04 A%	Crystal form A	Main purity: 99.81 A%	Maximum single impurity: 0.04 A%	Main purity: 99.79 A%	Crystal form A	Main purity: 98.83 A%	Maximum single impurity: 0.43 A%	at least 30 days	remains unchanged	1-3	flaky	–
CCCc1nc(-c2ccc(-c3ccc(CCC(N)(CO)CO)cc3)cc2)co1.Cl [Crystal form B, 2-amino-2-{2-(4'-(2-propyloxazol-4-yl)-[1,1'-biphenyl]-4-yl)ethyl}-1,3-propanediol hydrochloride]	Maximum single impurity: 0.04 A%	Crystal form B	Main purity: 99.80 A%	Maximum single impurity: 0.04 A%	Crystal form B	Main purity: 99.79 A%	Maximum single impurity: 0.04 A%	Crystal form B	Main purity: 99.83 A%	Maximum single impurity: 0.04 A%	Main purity: 99.78 A%	Crystal form B	Main purity: 99.19 A%	Maximum single impurity: 0.21 A%	at least 30 days	partially crystal transformed into the crystal form A	1-6	rod-shaped	less than 100 µm
